Measurements reported in PMC11079064, “Discovery of a brain penetrant small molecule antagonist targeting LPA1 receptors to reduce neuroinflammation and promote remyelination in multiple sclerosis” (Scientific Reports, 2024).
Like-named read-outs stand apart in the source and are kept apart here.

Key:
[1] = test system: mouse cortical brain slices; experiment: Lysolecithin-treated mouse organotypic slice culture, Mbp transcript; type: cell-based; settings: lysolecithin 18 h, then 3 days treatment; read-out: EC50 of Mbp transcript increase
Procedure: We next used an ex vivo organotypic brain slice culture to assess remyelination following a demyelinating insult. Mouse cortical brain slices were treated with lysolecithin, which induces acute demyelination through a non-specific lipid-based mechanism. […] After 3 additional days, the brain slices were processed for Mbp.
Evaluation of Mbp transcript in mouse brain slice culture: Brains were collected from P17 mice and placed into ice cold HBSS containing 20% FBS. Brains were bisected sagittally and 250 µm coronal slices made with a manual tissue chopper. Only slices anterior to the hippocampus displaying a discrete corpus callosum were used. Approximately 12 slices are obtained per animal. Slices were laid on a 30 mm MilliCell organotypic culture insert in a 6-well culture dish containing 1.1 mL growth media (DMEM, 25% HBSS-Ca^2+/-Mg^2+, 25% heat inactivated horse serum, glucose (5 g/l), 25 mM ascorbic acid and penicillin/streptomycin). Slices were cultured in vitro for 72 h with a 50% media change at 24 h. After 72 h, slices were demyelinated using media containing 0.5 mg/ml lysolecithin for 18 h. […] Slices were snap frozen and RNA extracted using the RNEasy Mini kit (Qiagen). […] Data was calculated using 2^−ΔΔCt , normalizing to 18S RNA and vehicle.

[2] = molecular target: T1, LPA1 (Mus musculus, UniProt P61793); experiment: In vivo brain binding of [3H]-OPC3497 radioligand; settings: PIPE-791 dosed orally 2 h prior; 5 and 30 minutes after radioligand
T1 construct: from tissue; host or cells: mouse brain (homogenate; forebrain of dosed C57BL6/N mice in the in vivo studies)
T1 sequence (P61793 whole entry): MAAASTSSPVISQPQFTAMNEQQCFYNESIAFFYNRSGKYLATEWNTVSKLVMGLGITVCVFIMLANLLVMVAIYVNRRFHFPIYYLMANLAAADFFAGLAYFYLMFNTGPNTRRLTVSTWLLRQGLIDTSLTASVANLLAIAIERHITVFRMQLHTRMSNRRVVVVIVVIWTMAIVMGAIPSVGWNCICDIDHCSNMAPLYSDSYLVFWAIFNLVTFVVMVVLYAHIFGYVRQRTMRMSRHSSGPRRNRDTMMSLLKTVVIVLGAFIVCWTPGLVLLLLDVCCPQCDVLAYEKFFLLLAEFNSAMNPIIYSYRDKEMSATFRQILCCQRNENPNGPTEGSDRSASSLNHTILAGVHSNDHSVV
Procedure: Supplemental Figure 3. OPC3497 is a suitable radioligand for evaluating LPA1 receptor occupancy. Following IV administration, [^3H]-OPC3497 binding in mouse brain increased rapidly, peaked 5 minutes post-dose and declined sharply over the evaluation period (2 h).

[3] = test system: rat brain meningeal fibroblasts; experiment: LPA-induced activation of rat meningeal fibroblasts (COL1+ area); type: cell-based; settings: LPA stimulation, read-out: IC50 of inhibition of increase in COL1+ area
Procedure: Recent work from Dorrier et al., has implicated persistent fibrotic scarring in the CNS in the mouse EAE model and that the contributing cells were of meningeal origin. […] We cultured primary rat or human brain meningeal fibroblasts and applied 10 µM LPA to induce activation. Upon LPA stimulation, we saw a change in morphology that could be quantified as a change in collagen I (COL1^+) area.
Meningeal fibroblasts were isolated from postnatal day 8 CD-1 rats (Charles River Labs, Willington, MA). Meninges were peeled off and digested in Accutase (Thermo Fisher, Waltham, MA, Waltham, MA) for 20 min at room temperature. […] was added to stop protease activity. Digested meninges were dissociated by trituration and cells were strained through a 40 µm nylon mesh and spun down at 800 g for 15 min. The cell pellet was resuspended in DMEM + 10% FBS and plated in a T-75 flask (Corning) for 10 days. Cells were lifted with Accutase and replated into 96-well Perkin Elmer, Boston, MA Viewplates, at 15k per well. The next day, cells were starved in DMEM for 8 h. […] 1 µM LPA or vehicle were added for 5 h. […] Primary antibody was detected using a goat-anti-mouse Alexa488 secondary antibody (Invitrogen, Carlsbad, CA, 1:250) with Hoechst. Wells were imaged on Nikon A1R confocal and Col1^+ area measured normalized to cell number (Hoechst count). […]

[4] = molecular target: T1, LPA1; experiment: In vivo brain LPA1 receptor occupancy with [3H]-OPC3497
Procedure: [^3H]-OPC3497 was diluted to 9.8 µCi/mL in saline and administered via IV injection to the lateral tail vein at a dose volume of 5 ml/kg at the times indicated. Mice were euthanized by decapitation, trunk blood collected into K3EDTA tubes and stored on wet ice, each brain rapidly dissected and the forebrain isolated, weighed and placed into a 5 ml polypropylene tube. Tissues were diluted with a 10 × volume of ice-cold binding buffer (50 mM HEPES, 100 mM NaCl, 2 mM EDTA, pH 7.4). Brains were homogenized and 350 µl of the homogenate was filtered over Whatman GF/B filters (GE Life Sciences, Marlborough, MA) pre-wetted with 0.5% polyethyleneimine. Filters were washed with cold 50 mM TRIS–HCl, 154 mM NaCl, 0.05% Tween 20, pH 7.4 twice and dried in an oven (~ 40–50 °C). 5 ml Ultima Gold F scintillation fluid (Perkin Elmer, Boston, MA, Boston, MA) was added to each tube and samples read on a Beckman LS6500 liquid scintillation counter. After all samples were collected, dissected, and filtered, the previously collected blood in K3EDTA tubes was centrifuged (1450 × g, 10 min, 4 °C) to separate plasma.

[5] = test system: human cortical slice cultures; experiment: Human cortical slice culture, Mbp transcript by qPCR; type: cell-based; settings: 9 days treatment; read-out: EC50 of Mbp increase by qPCR
Procedure: Cortical slices from regions containing both white and gray matter were generated from fresh human adult donor tissue and cultured for 10 days.
Human donor brain was received 14 h after death on wet ice. Upon receipt, the brain was immediately placed into-ice cold DPBS without calcium or magnesium. Cortical regions containing gray-white border were isolated then sliced on a McIlwain tissue chopper set at 400 µm thickness. […] Slices were then processed for qPCR or immunohistochemistry.
Evaluation of Mbp transcript in human brain slice culture: After compound treatment, slices were immediately transferred to lysis buffer and RNA extracted using the RNEasy Mini kit (Qiagen). Reverse transcription was performed using QScript (QuantaBio) followed by qPCR with Perfecta PCR SuperMix (QuantaBio) on a StepOne Plus Thermocycler (ABI). Primers used were as follows: 18S rRNA F: […] R: […]; Mbp: […] R: […]. Cycling parameters: 95 °C 30 s, then repeat 45×: 95 °C for 5 s, 60 °C for 15 s, followed by melt curve analysis. Data was calculated using 2^−ΔΔCt , normalizing to 18S RNA and vehicle.

SMILES: COc1ccc(NC(=O)N(c2ccccc2C(C)C)C2CCC(C(=O)O)CC2)c(OC(F)F)n1 (stereo not shown) [PIPE-791]
- EC50 [1]: 12.1 nM
- effect on total [3H]-OPC3497 binding in brain [2]: significantly reduced
- IC50 [3]: 31.8 nM
- time for which LPA1 occupancy was sustained ([4]; 3 mg/kg oral, followed out to 7 days): 24 h
- EC50 ([4]; once daily for 4 consecutive days (steady state), read-out: unbound brain EC50): 2.4 nM
- LPA1 receptor occupancy ED50 ([4]; single oral dose 2 h prior to radioligand, mouse brain): 0.17 mg/kg
- LPA1 receptor occupancy ED50 ([4]; single oral dose 24 h prior to radioligand, mouse brain): 0.19 mg/kg
- EC50 ([4]; single oral dose, unbound brain concentration versus occupancy, read-out: unbound brain EC50 (Cu, brain)): 2.2 nM
- LPA1 receptor occupancy ED50 ([4]; steady state: once daily for 4 days, occupancy 2 h after fourth dose): 0.03 mg/kg
- EC50 [5]: 4.2 nM
